pIC50: −log10 of the molar value.
Key:
HeLa [1] = test: Growth inhibition of human HeLa cells in presence of copper; format: functional, cell-based
HeLa [2] = test: Growth inhibition of human HeLa cells; format: functional, cell-based
HeLa [3] = test: Potency index, ratio of CQ IC50 to compound IC50 for human HeLa cells; format: functional
HeLa [4] = test: Cytotoxicity against human HeLa cells assessed as reduction in cell viability after 48 hrs by resazurin assay; format: functional, cell-based
HeLa [5] = test: Ionophoric activity in human HeLa cells assessed as intracellular metal accumulation at 11.3 uM cotreated with Co incubated for 6 hrs by ICP-AES analysis relative to control; format: functional
HeLa [6] = test: Ionophoric activity in human HeLa cells assessed as intracellular metal accumulation at 11.3 uM cotreated with Ni incubated for 6 hrs by ICP-AES analysis relative to control; format: functional
HeLa [7] = test: Ionophoric activity in human HeLa cells assessed as intracellular metal accumulation at 1.8 uM cotreated with Cu incubated for 6 hrs by ICP-AES analysis relative to control; format: functional
HeLa [8] = test: Ionophoric activity in human HeLa cells assessed as intracellular metal accumulation at 4.2 uM cotreated with Fe incubated for 6 hrs by ICP-AES analysis relative to control; format: functional
HeLa [9] = test: Cytotoxicity against human HeLa cells assessed as reduction in cell viability at 1:1 CuCl2:compound molar ratio after 48 hrs by resazurin assay; format: functional, cell-based

pIC50 (HeLa [1]) | pIC50 (HeLa [2]) | Compound | Ratio IC50 (HeLa [3]) | pIC50 (HeLa [4]) | fold change (FC) (HeLa [5]) | fold change (FC) (HeLa [6]) | fold change (FC) (HeLa [7]) | fold change (FC) (HeLa [8]) | pIC50 (HeLa [9])
7.22 | 6.15 | Cc1ccc(OS(=O)(=O)N2CCN(Cc3cc([N+](=O)[O-])c4cccnc4c3O)CC2)cc1 | 26 | – | – | – | – | – | –
– | – | Oc1cccc2cccnc12 [OXYQUINOLINE] | – | 4.87 | – | – | – | – | –
– | – | Oc1cccc2ccc(CCc3ccc4cccc(O)c4n3)nc12 | – | 4.63 | 2.1 | 2.1 | 13.7 | 1.8 | 5.74

— ChEMBL document CHEMBL4428040, “8-Hydroxyquinolines in medicinal chemistry: A structural perspective” (Eur J Med Chem, 2016)
